Data: US9833497B2, “Human originated EGF domain proteins and use of the same” (CHENGDU SOURCEBIO LIMITED-LIABILITY COMPANY, priority 2013, dated 2017)

How the values were obtained:
Type in all cases: cell-based
E. coli BL21 = assay: MIC against Gram-negative bacteria: E. coli BL21; conditions: for MIC E. coli BL21 / MIC against E. coli BL21 / MIC (μg/mL) E. coli BL21: 5×10^5 CFU/mL
Summary of the method: (§1)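 Two-fold serial dilutions of each purified human EGF domain protein, three replicate wells per level, were combined with bacteria at a final 5×10^5 CFU/mL in LB. Cultures were shaken at 175 rpm, 37° C. The MIC was taken as the minimum concentration preventing growth.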

Proteus vulgaris = assay: MIC against Gram-negative bacteria: Proteus vulgaris; conditions: for MIC P. vulgaris / MIC against P. vulgaris / MIC (μg/mL) P. vulgaris: 5×10^5 CFU/mL; for MIC against P. vulgaris: Proteus vulgaris
Summary of the method: as §1

Serratia marcescens = assay: MIC against Gram-negative bacteria: Serratia marcescens; conditions: for MIC S. marcescens / MIC against S. marcescens / MIC (μg/mL) S. marcescens: 5×10^5 CFU/mL; for MIC against S. marcescens: Serratia marcescens
Summary of the method: as §1

Proteus mirabilis = assay: MIC against Gram-negative bacteria: Proteus mirabilis; conditions: for MIC P. mirabilis / MIC against P. mirabilis / MIC (μg/mL) P. mirabilis: 5×10^5 CFU/mL; for MIC against P. mirabilis: Proteus mirabilis
Summary of the method: as §1

Pseudomonas aeruginosa = assay: MIC against Gram-negative bacteria: Pseudomonas aeruginosa; conditions: for MIC P. aeruginosa / MIC against P. aeruginosa / MIC (μg/mL) P. aeruginosa: 5×10^5 CFU/mL; for MIC against P. aeruginosa: Pseudomonas aeruginosa
Summary of the method: as §1

Moraxella catarrhalis = assay: MIC against Gram-negative bacteria: Moraxella catarrhalis; conditions: for MIC M. catarrhalis / MIC against M. catarrhalis / MIC (μg/mL) M. catarrhalis: 5×10^5 CFU/mL; for MIC against M. catarrhalis: Moraxella catarrhalis
Summary of the method: as §1

E. coli DH5α = assay: Antibacterial activity: MIC and growth curve against E. coli DH5α in 96-well plate; conditions: minimal inhibitory concentration against E. coli DH5α; 96-well plate, 5×10^5 CFU/mL, 37° C., judged after 8 h
Summary of the method: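 MIC taken as lowest protein level with no bacterial growth, tracked by A600 every 30 min during 37 °C, 175 rpm culture. Two-fold protein series 50-12.5 μg/mL final, triplicate wells, against 5×10^5 CFU/mL of LB-washed mid-log cells.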

Aeromonas hydrophila = assay: MIC against Gram-negative bacteria: Aeromonas hydrophila; conditions: for MIC A. hydrophila / MIC against A. hydrophila / MIC (μg/mL) A. hydrophila: 5×10^5 CFU/mL; for MIC against A. hydrophila: Aeromonas hydrophila
Summary of the method: as §1

Citrobacter diversus = assay: MIC against Gram-negative bacteria: Citrobacter diversus; conditions: for MIC C. diversus / MIC against C. diversus / MIC (μg/mL) C. diversus: 5×10^5 CFU/mL; for MIC against C. diversus: Citrobacter diversus
Summary of the method: as §1

Klebsiella pneumonia = assay: MIC against Gram-negative bacteria: Klebsiella pneumonia; conditions: for MIC K. pneumonia / MIC against K. pneumonia / MIC (μg/mL) K. pneumonia: 5×10^5 CFU/mL; for MIC against K. pneumonia: Klebsiella pneumonia
Summary of the method: as §1

Enterobacter cloacae = assay: MIC against Gram-negative bacteria: Enterobacter cloacae; conditions: for MIC E. cloacae / MIC against E. cloacae / MIC (μg/mL) E. cloacae: 5×10^5 CFU/mL; for MIC against E. cloacae: Enterobacter cloacae
Summary of the method: as §1

[1] = 10 h cultivation at 37° C., two-fold serial dilution
[2] = E. coli BL21, 10 h cultivation at 37° C.
[3] = P. vulgaris, 10 h cultivation at 37° C.
[4] = S. marcescens, 10 h cultivation at 37° C.
[5] = P. mirabilis, 10 h cultivation at 37° C.
[6] = P. aeruginosa, 10 h cultivation at 37° C.
[7] = M. catarrhalis, 10 h cultivation at 37° C.
[8] = A. hydrophila, 10 h cultivation at 37° C.
[9] = C. diversus, 10 h cultivation at 37° C.
[10] = K. pneumonia, 10 h cultivation at 37° C.
[11] = E. cloacae, 10 h cultivation at 37° C.

PRT1095 (EVQWCGFSPCPHGAQCQPVLQGFECIANAVFNGQSGQ; listed as Homo sapiens)
25 µg/mL: MIC P. mirabilis (Proteus mirabilis; [1]) | MIC A. hydrophila (Aeromonas hydrophila; [1]) | MIC C. diversus (Citrobacter diversus; [1]) | MIC K. pneumonia (Klebsiella pneumonia; [1])
50 µg/mL: MIC S. marcescens (Serratia marcescens; [1]) | MIC P. aeruginosa (Pseudomonas aeruginosa; [1]) | MIC M. catarrhalis (Moraxella catarrhalis; [1]) | MIC (E. coli DH5α)
12.5 µg/mL: MIC E. coli BL21 (E. coli BL21; [1]) | MIC P. vulgaris (Proteus vulgaris; [1]) | MIC E. cloacae (Enterobacter cloacae; [1])

PRT1437 (DVNECADGAHPPCHASARCRNTKGGFQCLCADPYELGDDGRTCV; listed as Homo sapiens)
12.5 µg/mL: MIC against P. vulgaris (Proteus vulgaris; 10 h cultivation at 37° C.) | MIC against P. aeruginosa (Pseudomonas aeruginosa; 10 h cultivation at 37° C.) | MIC against M. catarrhalis (Moraxella catarrhalis; 10 h cultivation at 37° C.) | MIC (E. coli DH5α) | MIC against A. hydrophila (Aeromonas hydrophila; 10 h cultivation at 37° C.) | MIC against C. diversus (Citrobacter diversus; 10 h cultivation at 37° C.) | MIC against K. pneumonia (Klebsiella pneumonia; 10 h cultivation at 37° C.) | MIC against E. cloacae (Enterobacter cloacae; 10 h cultivation at 37° C.)
25 µg/mL: MIC against E. coli BL21 (E. coli BL21; [2]) | MIC against P. mirabilis (Proteus mirabilis; 10 h cultivation at 37° C.)
50 µg/mL: MIC against S. marcescens (Serratia marcescens; 10 h cultivation at 37° C.)

PRT783 (WGPNCSLPCYCKNGASCSPDDGICECAPGFRGTTCQ; listed as Homo sapiens)
12.5 µg/mL: MIC (μg/mL) E. coli BL21 (E. coli BL21; [2]) | MIC (μg/mL) S. marcescens (Serratia marcescens; [4]) | MIC (μg/mL) M. catarrhalis (Moraxella catarrhalis; [7]) | MIC (μg/mL) K. pneumonia (Klebsiella pneumonia; [10])
50 µg/mL: MIC (μg/mL) P. vulgaris (Proteus vulgaris; [3]) | MIC (μg/mL) P. aeruginosa (Pseudomonas aeruginosa; [6]) | MIC (μg/mL) A. hydrophila (Aeromonas hydrophila; [8])
25 µg/mL: MIC (μg/mL) P. mirabilis (Proteus mirabilis; [5]) | MIC (E. coli DH5α) | MIC (μg/mL) C. diversus (Citrobacter diversus; [9]) | MIC (μg/mL) E. cloacae (Enterobacter cloacae; [11])

PRT994 (DHNECLSQPCHPGSTCLDLLATFHCLCPPGLEGQLCE; listed as Homo sapiens)
50 µg/mL: MIC (Proteus vulgaris; [3]) | MIC (E. coli DH5α) | MIC (Citrobacter diversus; [9]) | MIC (Klebsiella pneumonia; [10])
12.5 µg/mL: MIC (E. coli BL21; [2]) | MIC (Moraxella catarrhalis; [7]) | MIC (Aeromonas hydrophila; [8])
25 µg/mL: MIC (Serratia marcescens; [4]) | MIC (Proteus mirabilis; [5]) | MIC (Pseudomonas aeruginosa; [6]) | MIC (Enterobacter cloacae; [11])

PRT1434 (DVDECKYHPCYPGVHCINLSPGFRCDACPVGFTGPMVQ; listed as Homo sapiens)
25 µg/mL: MIC against P. mirabilis (Proteus mirabilis; 10 h cultivation at 37° C.) | MIC against P. aeruginosa (Pseudomonas aeruginosa; 10 h cultivation at 37° C.) | MIC (E. coli DH5α) | MIC against C. diversus (Citrobacter diversus; 10 h cultivation at 37° C.) | MIC against E. cloacae (Enterobacter cloacae; 10 h cultivation at 37° C.)
12.5 µg/mL: MIC against E. coli BL21 (E. coli BL21; [2]) | MIC against P. vulgaris (Proteus vulgaris; 10 h cultivation at 37° C.) | MIC against S. marcescens (Serratia marcescens; 10 h cultivation at 37° C.) | MIC against M. catarrhalis (Moraxella catarrhalis; 10 h cultivation at 37° C.) | MIC against A. hydrophila (Aeromonas hydrophila; 10 h cultivation at 37° C.)
100 µg/mL: MIC against K. pneumonia (Klebsiella pneumonia; 10 h cultivation at 37° C.)

PRT1360 (NKPLCLNNCYNRGRCVENECVCDEGFTGEDCS; listed as Homo sapiens)
12.5 µg/mL: MIC against P. mirabilis (Proteus mirabilis; 10 h cultivation at 37° C.) | MIC (E. coli DH5α) | MIC against C. diversus (Citrobacter diversus; 10 h cultivation at 37° C.) | MIC against E. cloacae (Enterobacter cloacae; 10 h cultivation at 37° C.)
25 µg/mL: MIC against E. coli BL21 (E. coli BL21; [2]) | MIC against P. vulgaris (Proteus vulgaris; 10 h cultivation at 37° C.) | MIC against K. pneumonia (Klebsiella pneumonia; 10 h cultivation at 37° C.)
50 µg/mL: MIC against S. marcescens (Serratia marcescens; 10 h cultivation at 37° C.) | MIC against P. aeruginosa (Pseudomonas aeruginosa; 10 h cultivation at 37° C.) | MIC against M. catarrhalis (Moraxella catarrhalis; 10 h cultivation at 37° C.) | MIC against A. hydrophila (Aeromonas hydrophila; 10 h cultivation at 37° C.)

PRT166 (NGSPCQHGGTCVDDEGRASHASCLCPPGFSGNFCE; listed as Homo sapiens)
12.5 µg/mL: MIC (μg/mL) P. vulgaris (Proteus vulgaris; [3]) | MIC (μg/mL) P. mirabilis (Proteus mirabilis; [5]) | MIC (μg/mL) P. aeruginosa (Pseudomonas aeruginosa; [6]) | MIC (μg/mL) M. catarrhalis (Moraxella catarrhalis; [7]) | MIC (E. coli DH5α) | MIC (μg/mL) A. hydrophila (Aeromonas hydrophila; [8]) | MIC (μg/mL) C. diversus (Citrobacter diversus; [9]) | MIC (μg/mL) E. cloacae (Enterobacter cloacae; [11])
50 µg/mL: MIC (μg/mL) S. marcescens (Serratia marcescens; [4])
25 µg/mL: MIC (μg/mL) E. coli BL21 (E. coli BL21; [2]) | MIC (μg/mL) K. pneumonia (Klebsiella pneumonia; [10])

PRT1135 (NLDDCASRPCQRGARCRDRVHDFDCLCPSGYGGKTCE; listed as Homo sapiens)
50 µg/mL: MIC E. coli BL21 (E. coli BL21; [1]) | MIC P. mirabilis (Proteus mirabilis; [1]) | MIC K. pneumonia (Klebsiella pneumonia; [1])
25 µg/mL: MIC P. vulgaris (Proteus vulgaris; [1]) | MIC M. catarrhalis (Moraxella catarrhalis; [1]) | MIC (E. coli DH5α) | MIC A. hydrophila (Aeromonas hydrophila; [1]) | MIC E. cloacae (Enterobacter cloacae; [1])
100 µg/mL: MIC P. aeruginosa (Pseudomonas aeruginosa; [1])
12.5 µg/mL: MIC S. marcescens (Serratia marcescens; [1]) | MIC C. diversus (Citrobacter diversus; [1])

PRT619 (CNCQGGGACDPDTGDCYSGDENPDIECADCPIGFYNDPHDPRSCKP; listed as Homo sapiens)
12.5 µg/mL: MIC P. mirabilis (Proteus mirabilis; 96-well plate, 37° C., 10 h) | MIC (E. coli DH5α) | MIC E. cloacae (Enterobacter cloacae; 96-well plate, 37° C., 10 h)
25 µg/mL: MIC E. coli BL21 (E. coli BL21; 96-well plate, 37° C., 10 h) | MIC P. vulgaris (Proteus vulgaris; 96-well plate, 37° C., 10 h) | MIC M. catarrhalis (Moraxella catarrhalis; 96-well plate, 37° C., 10 h) | MIC A. hydrophila (Aeromonas hydrophila; 96-well plate, 37° C., 10 h) | MIC K. pneumonia (Klebsiella pneumonia; 96-well plate, 37° C., 10 h)
50 µg/mL: MIC S. marcescens (Serratia marcescens; 96-well plate, 37° C., 10 h) | MIC P. aeruginosa (Pseudomonas aeruginosa; 96-well plate, 37° C., 10 h) | MIC C. diversus (Citrobacter diversus; 96-well plate, 37° C., 10 h)

PRT1333 (PIPECAALLCPENSRCSPSTEDENKLECKCLPNYRGDGKYCD; listed as Homo sapiens)
12.5 µg/mL: MIC against E. coli BL21 (E. coli BL21; E. coli BL21, 96-well plate, 37° C., 10 h) | MIC against S. marcescens (Serratia marcescens; 96-well plate, 37° C., 10 h) | MIC against P. mirabilis (Proteus mirabilis; 96-well plate, 37° C., 10 h) | MIC against C. diversus (Citrobacter diversus; 96-well plate, 37° C., 10 h) | MIC against E. cloacae (Enterobacter cloacae; 96-well plate, 37° C., 10 h)
25 µg/mL: MIC against P. vulgaris (Proteus vulgaris; 96-well plate, 37° C., 10 h) | MIC against P. aeruginosa (Pseudomonas aeruginosa; 96-well plate, 37° C., 10 h) | MIC against M. catarrhalis (Moraxella catarrhalis; 96-well plate, 37° C., 10 h) | MIC (E. coli DH5α) | MIC against A. hydrophila (Aeromonas hydrophila; 96-well plate, 37° C., 10 h) | MIC against K. pneumonia (Klebsiella pneumonia; 96-well plate, 37° C., 10 h)
